pIC50: −log10 of the molar value. Where two headings read alike, the source gives them in different places.
Legend:
[1] = system: forty-four human cancer cell lines; assay: Cell proliferation assay (ATPlite, 72 hours) in the 44 cell line Oncolines panel; format: cell-based; conditions: Homo sapiens
[2] = molecular target: panel of more than 300 wild-type and mutant kinases (313 kinase panel) (Homo sapiens, UniProt P15056); assay: Kinase profiling in a biochemical assay panel (mobility shift assays and ELISA), %-inhibition at 1 μM; selectivity entropy; conditions: kinase BRAF; 1 μM compound
Sequence of panel of more than 300 wild-type and mutant kinases (313 kinase panel) (Homo sapiens, UniProt P15056) (P15056 whole entry, change not shown): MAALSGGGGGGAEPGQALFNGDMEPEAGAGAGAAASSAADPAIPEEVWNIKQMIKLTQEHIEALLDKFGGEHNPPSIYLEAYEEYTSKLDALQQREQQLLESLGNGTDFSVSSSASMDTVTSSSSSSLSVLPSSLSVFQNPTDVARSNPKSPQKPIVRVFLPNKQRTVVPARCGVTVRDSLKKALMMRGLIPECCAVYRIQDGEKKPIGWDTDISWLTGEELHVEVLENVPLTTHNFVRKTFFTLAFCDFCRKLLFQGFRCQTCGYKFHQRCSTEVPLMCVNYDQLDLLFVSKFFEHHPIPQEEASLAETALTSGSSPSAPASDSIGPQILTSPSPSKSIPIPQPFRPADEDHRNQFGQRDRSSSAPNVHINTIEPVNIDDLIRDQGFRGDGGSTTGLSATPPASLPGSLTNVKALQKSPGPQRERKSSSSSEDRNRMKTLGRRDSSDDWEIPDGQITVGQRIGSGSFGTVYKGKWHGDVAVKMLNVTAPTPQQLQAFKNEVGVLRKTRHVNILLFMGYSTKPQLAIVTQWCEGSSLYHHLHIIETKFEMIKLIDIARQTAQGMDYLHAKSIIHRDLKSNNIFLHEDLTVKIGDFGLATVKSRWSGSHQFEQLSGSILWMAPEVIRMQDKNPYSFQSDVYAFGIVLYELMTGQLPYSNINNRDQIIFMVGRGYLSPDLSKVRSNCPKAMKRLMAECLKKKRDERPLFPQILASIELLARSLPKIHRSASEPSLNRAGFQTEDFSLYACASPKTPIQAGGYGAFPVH

[3] = molecular target: T1, panel of more than 300 wild-type and mutant kinases (313 kinase panel) (Homo sapiens, UniProt Q16832); assay: as above; conditions: kinase DDR2; compound at 1 μM
T1 sequence (Q16832 22-855): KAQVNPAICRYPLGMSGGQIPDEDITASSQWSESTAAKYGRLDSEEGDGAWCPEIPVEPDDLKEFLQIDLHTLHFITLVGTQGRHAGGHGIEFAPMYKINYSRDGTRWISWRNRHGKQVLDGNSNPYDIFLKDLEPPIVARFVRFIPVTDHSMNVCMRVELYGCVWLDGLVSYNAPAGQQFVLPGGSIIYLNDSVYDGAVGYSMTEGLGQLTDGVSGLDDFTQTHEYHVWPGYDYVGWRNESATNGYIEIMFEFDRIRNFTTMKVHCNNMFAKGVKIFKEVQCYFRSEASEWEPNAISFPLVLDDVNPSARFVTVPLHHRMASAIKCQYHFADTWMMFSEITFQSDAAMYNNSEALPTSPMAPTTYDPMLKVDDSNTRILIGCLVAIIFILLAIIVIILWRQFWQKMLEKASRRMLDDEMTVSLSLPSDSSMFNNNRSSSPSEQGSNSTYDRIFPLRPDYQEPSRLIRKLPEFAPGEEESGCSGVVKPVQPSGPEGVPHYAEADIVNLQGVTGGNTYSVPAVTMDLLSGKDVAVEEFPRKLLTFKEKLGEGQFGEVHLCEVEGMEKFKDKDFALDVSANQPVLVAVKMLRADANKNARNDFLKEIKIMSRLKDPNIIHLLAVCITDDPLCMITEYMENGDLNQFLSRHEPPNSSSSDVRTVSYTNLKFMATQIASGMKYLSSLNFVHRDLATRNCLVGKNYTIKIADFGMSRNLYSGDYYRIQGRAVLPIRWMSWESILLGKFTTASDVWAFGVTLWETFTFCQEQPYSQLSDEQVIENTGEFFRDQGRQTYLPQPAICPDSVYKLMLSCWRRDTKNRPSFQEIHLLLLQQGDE

[4] = molecular target: T2, panel of more than 300 wild-type and mutant kinases (313 kinase panel) (Homo sapiens, UniProt P51955); assay: as above; conditions: kinase NEK2; 1 μM
T2 sequence (P51955 1-445): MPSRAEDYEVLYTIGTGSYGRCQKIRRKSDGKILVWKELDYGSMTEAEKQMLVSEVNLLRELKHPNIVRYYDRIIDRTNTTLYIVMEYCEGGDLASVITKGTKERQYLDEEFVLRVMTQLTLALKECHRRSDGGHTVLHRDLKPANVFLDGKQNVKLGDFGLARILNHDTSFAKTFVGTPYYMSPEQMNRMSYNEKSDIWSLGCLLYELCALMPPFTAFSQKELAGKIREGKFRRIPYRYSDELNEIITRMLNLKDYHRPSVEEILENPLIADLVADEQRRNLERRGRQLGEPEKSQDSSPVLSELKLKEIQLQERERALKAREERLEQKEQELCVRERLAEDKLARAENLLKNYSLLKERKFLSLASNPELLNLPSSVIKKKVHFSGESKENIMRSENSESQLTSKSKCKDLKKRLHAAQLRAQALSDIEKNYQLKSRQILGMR

[5] = molecular target: panel of more than 300 wild-type and mutant kinases (313 kinase panel) (Homo sapiens, UniProt P22612); assay: as above; conditions: kinase PKACγ; 1 μM
[6] = molecular target: panel of more than 300 wild-type and mutant kinases (313 kinase panel) (Homo sapiens, UniProt Q8TDX7); assay: as above; conditions: kinase NEK7; 1 μM
[7] = molecular target: panel of more than 300 wild-type and mutant kinases (313 kinase panel) (Homo sapiens, UniProt P07947, T348I); assay: as above; conditions: kinase YES(T348I); compound at 1 μM
Sequence of panel of more than 300 wild-type and mutant kinases (313 kinase panel) (Homo sapiens, UniProt P07947, T348I) (P07947 whole entry T348I): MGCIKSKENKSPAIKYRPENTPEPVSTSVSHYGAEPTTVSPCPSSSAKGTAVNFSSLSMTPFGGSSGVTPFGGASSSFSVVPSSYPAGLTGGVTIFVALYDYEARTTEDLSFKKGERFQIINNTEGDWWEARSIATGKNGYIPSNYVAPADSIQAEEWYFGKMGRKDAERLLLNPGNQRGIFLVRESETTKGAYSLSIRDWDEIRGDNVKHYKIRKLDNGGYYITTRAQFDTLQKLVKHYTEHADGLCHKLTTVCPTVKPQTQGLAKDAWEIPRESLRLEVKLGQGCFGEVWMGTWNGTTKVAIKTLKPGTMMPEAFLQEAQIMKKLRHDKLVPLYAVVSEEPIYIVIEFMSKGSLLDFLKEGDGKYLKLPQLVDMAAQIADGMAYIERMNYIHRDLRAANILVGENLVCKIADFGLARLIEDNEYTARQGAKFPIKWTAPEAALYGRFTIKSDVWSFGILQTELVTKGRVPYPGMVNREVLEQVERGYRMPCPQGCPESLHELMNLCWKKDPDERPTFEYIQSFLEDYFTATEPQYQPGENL

[8] = molecular target: panel of more than 300 wild-type and mutant kinases (313 kinase panel) (Homo sapiens, UniProt P09619); assay: as above; conditions: kinase PDGFRβ; 1 μM
[9] = molecular target: panel of more than 300 wild-type and mutant kinases (313 kinase panel) (Homo sapiens, UniProt P15056, V600E); assay: as above; conditions: kinase BRAF(V600E); 1 μM compound
Sequence of panel of more than 300 wild-type and mutant kinases (313 kinase panel) (Homo sapiens, UniProt P15056, V600E) (P15056 whole entry V600E): as the sequence (P15056 whole entry, change not shown) above, with V600E counted along it

Compound: CO[C@H]1C[C@@H]2CC[C@@H](C)[C@@](O)(O2)C(=O)C(=O)N2CCCC[C@H]2C(=O)O[C@H]([C@H](C)C[C@@H]2CC[C@@H](OC(=O)C(C)(CO)CO)[C@H](OC)C2)CC(=O)[C@H](C)/C=C(\C)[C@@H](O)[C@@H](OC)C(=O)[C@H](C)C[C@H](C)/C=C/C=C/C=C/1C [temsirolimus]
- pIC50 ([1]; A 172, read-out: cell panel IC50, A-172): 8.00
- pIC50 ([1]; A204, cell line A-204, read-out: cell panel IC50, A-204): 5.61
- pIC50 ([1]; A498, read-out: cell panel IC50, A-498): 5.82
- pIC50 ([1]; A549, read-out: cell panel IC50, A-549): 6.13
- pIC50 ([1]; A-375, cell line A375, read-out: cell panel IC50, A375): < 5.50
- pIC50 ([1]; A-427, read-out: cell panel IC50, A-427): 7.02
- pIC50 ([1]; AU565, read-out: cell panel IC50, AU-565): 7.20
- pIC50 ([1]; BT-549, read-out: cell panel IC50, BT-549): 7.77
- pIC50 ([1]; HCT-116, read-out: cell panel IC50, HCT-116): 6.60
- pIC50 ([1]; K562, read-out: cell panel IC50, K-562): < 5.50
- pIC50 ([1]; LS174T, read-out: cell panel IC50, LS 174T): 7.06
- pIC50 ([1]; SHP77, cell line SHP-77, read-out: cell panel IC50, SHP-77): < 5.50
- pIC50 ([1]; SW-620, cell line SW620, read-out: cell panel IC50, SW620): < 5.50
- pIC50 ([1]; U2OS, cell line U-2 OS, read-out: cell panel IC50, U-2 OS): 7.39
- pIC50 ([1]; cell line J82, read-out: cell panel IC50, J82): 7.59
- pIC50 ([1]; cell line PA-1, read-out: cell panel IC50, PA-1): 5.88
- pIC50 ([1]; cell line SJCRH30, read-out: cell panel IC50, SJCRH30): < 5.50
- pIC50 ([1]; cell line SR, read-out: cell panel IC50, SR): 8.10
- pIC50 ([1]; U-87 MG cell line, ATPlite, 72 hours, read-out: IC50 in cell proliferation assay (table S5 cellpanel data)): 6.34
- pIC50 ([1]; cell line 769-P, read-out: cell panel IC50, 769-P): 8.05
- pIC50 ([1]; cell line 786-0, read-out: cell panel IC50, 786-0): 6.37
- pIC50 ([1]; cell line ACHN, read-out: cell panel IC50, ACHN): < 5.50
- pIC50 ([1]; cell line AN3 CA, read-out: cell panel IC50, AN3 CA): 6.10
- pIC50 ([1]; cell line BT-20, read-out: cell panel IC50, BT-20): 7.48
- pIC50 ([1]; cell line BxPC-3, read-out: cell panel IC50, BxPC-3): < 5.50
- pIC50 ([1]; cell line C-33 A, read-out: cell panel IC50, C-33 A): 7.47
- pIC50 ([1]; cell line CAL 27, read-out: cell panel IC50, CAL 27): < 5.50
- pIC50 ([1]; cell line CCRF-CEM, read-out: cell panel IC50, CCRF-CEM): 7.82
- pIC50 ([1]; cell line DLD-1, read-out: cell panel IC50, DLD-1): 6.90
- pIC50 ([1]; cell line FaDu, read-out: cell panel IC50, FaDu): < 5.50
- pIC50 ([1]; cell line HCT-15, read-out: cell panel IC50, HCT-15): 5.61
- pIC50 ([1]; cell line Hs 578T, read-out: cell panel IC50, Hs 578T): 7.00
- pIC50 ([1]; cell line Jurkat E6.1, read-out: cell panel IC50, Jurkat E6.1): 6.91
- pIC50 ([1]; cell line LoVo, read-out: cell panel IC50, LoVo): < 5.50
- pIC50 ([1]; cell line MG-63, read-out: cell panel IC50, MG-63): 5.65
- pIC50 ([1]; cell line MOLT-4, read-out: cell panel IC50, MOLT-4): 7.68
- pIC50 ([1]; cell line MeWo, read-out: cell panel IC50, MeWo): 7.72
- pIC50 ([1]; cell line NCI-H82, read-out: cell panel IC50, NCI-H82): < 5.50
- pIC50 ([1]; cell line NCI-H460, read-out: cell panel IC50, NCI-H460): 7.33
- pIC50 ([1]; cell line OVCAR-3, read-out: cell panel IC50, OVCAR-3): < 5.50
- pIC50 ([1]; cell line RPMI-7951, read-out: cell panel IC50, RPMI-7951): 8.92
- pIC50 ([1]; cell line SK-N-AS, read-out: cell panel IC50, SK-N-AS): 6.62
- pIC50 ([1]; cell line SW48, read-out: cell panel IC50, SW48): < 5.50
- pIC50 ([1]; cell line SW480, read-out: cell panel IC50, SW480): 7.74
- %-inhibition, BRAF [2]: -3.36%
- %-inhibition of DDR2 [3]: -4%
- %-inhibition of NEK2 [4]: -5%
- %-inhibition of PKACγ [5]: -6%
- %-inhibition of NEK7 [6]: -8%
- %-inhibition of YES(T348I) [7]: -0.177%
- %-inhibition of PDGFRβ [8]: -2.27%
- %-inhibition, BRAF(V600E) [9]: -0.864%
